From US8952024B2, “Herbicidal pyrimidone derivatives” (E I du Pont de Nemours and Company, priority 2009, dated 2015)

Key:
Assay type in all cases: in vivo
[1] = system: morningglory (Ipomoea spp.); assay: Test A pre-/postemergence plant response
Summary of the method: (§1)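 Greenhouse trial, ~10 days. Soil (loam/sand) sprayed preemergence after seeding; emerged plants (1–2 leaf, 2–10 cm) sprayed postemergence in parallel. Response = visual injury vs untreated control, 0–100.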

[2] = system: pigweed (Amaranthus retroflexus); assay: Test A pre-/postemergence plant response
Summary of the method: as §1

[3] = system: giant foxtail (Setaria faberii); assay: Test A pre-/postemergence plant response
Summary of the method: as §1

corn (Zea mays) = assay: Test A pre-/postemergence plant response
Summary of the method: as §1

[4] = system: velvetleaf (Abutilon theophrasti); assay: Test A pre-/postemergence plant response
Summary of the method: as §1

[5] = system: large crabgrass (Digitaria sanguinalis); assay: Test A pre-/postemergence plant response
Summary of the method: as §1

[6] = system: wheat (Triticum aestivum); assay: Test A pre-/postemergence plant response
Summary of the method: as §1

[7] = system: barnyardgrass (Echinochloa crus-galli); assay: Test A pre-/postemergence plant response
Summary of the method: as §1

[8] = system: canarygrass (Phalaris minor); assay: Test B postemergence plant response; details: for Canarygrass plant response rating (0 to 100 scale): 62 g ai/ha, 0 is no effect, 13 to 15 days
Summary of the method: (§2)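 Plants at the 1- to 4-leaf stage (2 to 18 cm tall), grown in pots of peat moss/vermiculite medium with wetting agent and starter nutrients, received postemergence applications of test chemicals. After 13 to 15 days in a greenhouse, injury was rated visually against untreated controls on a 0 (no effect) to 100 (complete control) scale.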

[9] = system: windgrass (Apera spica-venti); assay: Test B postemergence plant response; details: for Windgrass plant response rating (0 to 100 scale): 62 g ai/ha, postemergence, 0 is no effect, 100 is complete control, 13 to 15 days; for Plant response rating, Windgrass: Postemergence, 125 g ai/ha, scale 0 to 100 (0 no effect, 100 complete control)
Summary of the method: as §2

[10] = system: winter barley (Hordeum vulgare); assay: Test B postemergence plant response; details: for Barley plant response rating (0 to 100 scale): 62 g ai/ha, 0 is no effect, 13 to 15 days
Summary of the method: as §2

[11] = system: chickweed (Stellaria media); assay: Test B postemergence plant response; details: for Chickweed plant response rating (0 to 100 scale): 62 g ai/ha, 0 is no effect, 13 to 15 days
Summary of the method: as §2

[12] = Postemergence, 125 g ai/ha, 0 to 100 scale where 0 is no effect and 100 is complete control
[13] = Postemergence, 500 g ai/ha, 0 to 100 scale, 0 = no effect, 100 = complete control, approx. ten days
[14] = Preemergence, 125 g ai/ha, 0 to 100 scale, 0 = no effect, 100 = complete control
[15] = Preemergence, 500 g ai/ha, visual injury, 0 to 100 scale (0 no effect, 100 complete control), approx. ten days
[16] = 31 g ai/ha, postemergence, scale 0 to 100, 0 is no effect, 100 is complete control
[17] = postemergence, 100 is complete control
[18] = Postemergence, 125 g ai/ha, scale 0 to 100 (0 no effect, 100 complete control)
[19] = Postemergence, 250 g ai/ha, scale 0 to 100 (0 no effect, 100 complete control)

SMILES: CCCn1c(-c2ccc(F)cc2)ncc(C(=O)C2=C(O)CCCC2=O)c1=O [Compound 102]
- Plant response rating, Morningglory [1, 12]: 100
- Plant response rating, Morningglory [1, 13]: 100
- Plant response rating, Morningglory [1, 14]: 80
- Plant response rating, Morningglory [1, 15]: 80
- Plant response rating, Pigweed [2, 12]: 100
- Plant response rating, Pigweed [2, 13]: 100
- Plant response rating, Pigweed [2, 14]: 60
- Plant response rating, Pigweed [2, 15]: 100
- Plant response rating, Foxtail, Giant [3, 12]: 80
- Plant response rating, Foxtail, Giant [3, 13]: 90
- Plant response rating, Foxtail, Giant [3, 14]: 80
- Plant response rating, Foxtail, Giant [3, 15]: 100
- Plant response rating, Corn (corn (Zea mays); [12]): 0
- Plant response rating, Corn (corn (Zea mays); [13]): 20
- Plant response rating, Corn (corn (Zea mays); [14]): 0
- Plant response rating, Corn (corn (Zea mays); [15]): 0
- Plant response rating, Velvetleaf [4, 12]: 100
- Plant response rating, Velvetleaf [4, 13]: 100
- Plant response rating, Velvetleaf [4, 14]: 80
- Plant response rating, Velvetleaf [4, 15]: 100
- Plant response rating, Crabgrass, Large [5, 12]: 90
- Plant response rating, Crabgrass, Large [5, 13]: 100
- Plant response rating, Crabgrass, Large [5, 14]: 80
- Plant response rating, Crabgrass, Large [5, 15]: 100
- Plant response rating, Wheat [6, 12]: 0
- Plant response rating, Wheat [6, 13]: 10
- Plant response rating, Wheat [6, 14]: 0
- Plant response rating, Wheat [6, 15]: 0
- Plant response rating, Barnyardgrass [7, 12]: 80
- Plant response rating, Barnyardgrass [7, 13]: 90
- Plant response rating, Barnyardgrass [7, 14]: 40
- Plant response rating, Barnyardgrass [7, 15]: 90
- Plant response rating, Canarygrass [8, 16]: 5
- Canarygrass plant response rating (0 to 100 scale) [8, 17]: 20
- Plant response rating, Canarygrass [8, 18]: 30
- Plant response rating, Canarygrass [8, 19]: 50
- Windgrass plant response rating (0 to 100 scale) [9]: 10
- Plant response rating, Windgrass [9]: 60
- Plant response rating, Barley [10, 16]: 0
- Barley plant response rating (0 to 100 scale) [10, 17]: 10
- Plant response rating, Barley [10, 18]: 30
- Plant response rating, Barley [10, 19]: 60
- Plant response rating, Chickweed [11, 16]: 60
- Chickweed plant response rating (0 to 100 scale) [11, 17]: 80
- Plant response rating, Chickweed [11, 18]: 95
- Plant response rating, Chickweed [11, 19]: 100

SMILES: COCC(C)n1c(-c2ccccc2)ncc(C(=O)C2=C(O)CCCC2=O)c1=O (stereo not drawn) [Compound 107]
- Plant response rating, Morningglory [1, 12]: 100
- Plant response rating, Morningglory [1, 13]: 100
- Plant response rating, Morningglory [1, 14]: 70
- Plant response rating, Morningglory [1, 15]: 100
- Plant response rating, Pigweed [2, 12]: 100
- Plant response rating, Pigweed [2, 13]: 100
- Plant response rating, Pigweed [2, 14]: 100
- Plant response rating, Pigweed [2, 15]: 100
- Plant response rating, Foxtail, Giant [3, 12]: 70
- Plant response rating, Foxtail, Giant [3, 13]: 90
- Plant response rating, Foxtail, Giant [3, 14]: 60
- Plant response rating, Foxtail, Giant [3, 15]: 90
- Plant response rating, Corn (corn (Zea mays); [12]): 0
- Plant response rating, Corn (corn (Zea mays); [13]): 50
- Plant response rating, Corn (corn (Zea mays); [14]): 20
- Plant response rating, Velvetleaf [4, 12]: 100
- Plant response rating, Velvetleaf [4, 13]: 100
- Plant response rating, Velvetleaf [4, 14]: 100
- Plant response rating, Velvetleaf [4, 15]: 100
- Plant response rating, Crabgrass, Large [5, 12]: 80
- Plant response rating, Crabgrass, Large [5, 13]: 90
- Plant response rating, Crabgrass, Large [5, 14]: 90
- Plant response rating, Crabgrass, Large [5, 15]: 100
- Plant response rating, Wheat [6, 12]: 0
- Plant response rating, Wheat [6, 13]: 10
- Plant response rating, Wheat [6, 14]: 0
- Plant response rating, Wheat [6, 15]: 0
- Plant response rating, Barnyardgrass [7, 12]: 90
- Plant response rating, Barnyardgrass [7, 13]: 90
- Plant response rating, Barnyardgrass [7, 14]: 40
- Plant response rating, Barnyardgrass [7, 15]: 90
- Plant response rating, Canarygrass [8, 16]: 5
- Canarygrass plant response rating (0 to 100 scale) [8, 17]: 15
- Plant response rating, Canarygrass [8, 18]: 60
- Plant response rating, Canarygrass [8, 19]: 80
- Windgrass plant response rating (0 to 100 scale) [9]: 40
- Plant response rating, Windgrass [9]: 80
- Plant response rating, Barley [10, 16]: 0
- Barley plant response rating (0 to 100 scale) [10, 17]: 5
- Plant response rating, Barley [10, 18]: 25
- Plant response rating, Barley [10, 19]: 30
- Plant response rating, Chickweed [11, 16]: 98
- Chickweed plant response rating (0 to 100 scale) [11, 17]: 100
- Plant response rating, Chickweed [11, 18]: 100
- Plant response rating, Chickweed [11, 19]: 100

SMILES: COCCn1c(-c2cccc(C)c2)ncc(C(=O)C2=C(O)CCCC2=O)c1=O [Compound 117]
- Plant response rating, Morningglory [1, 12]: 100
- Plant response rating, Morningglory [1, 13]: 100
- Plant response rating, Morningglory [1, 14]: 40
- Plant response rating, Morningglory [1, 15]: 90
- Plant response rating, Pigweed [2, 12]: 100
- Plant response rating, Pigweed [2, 13]: 100
- Plant response rating, Pigweed [2, 14]: 90
- Plant response rating, Pigweed [2, 15]: 100
- Plant response rating, Foxtail, Giant [3, 12]: 70
- Plant response rating, Foxtail, Giant [3, 13]: 80
- Plant response rating, Foxtail, Giant [3, 14]: 20
- Plant response rating, Foxtail, Giant [3, 15]: 70
- Plant response rating, Corn (corn (Zea mays); [12]): 20
- Plant response rating, Corn (corn (Zea mays); [13]): 50
- Plant response rating, Corn (corn (Zea mays); [14]): 0
- Plant response rating, Corn (corn (Zea mays); [15]): 20
- Plant response rating, Velvetleaf [4, 12]: 100
- Plant response rating, Velvetleaf [4, 13]: 100
- Plant response rating, Velvetleaf [4, 14]: 70
- Plant response rating, Velvetleaf [4, 15]: 90
- Plant response rating, Crabgrass, Large [5, 12]: 80
- Plant response rating, Crabgrass, Large [5, 13]: 100
- Plant response rating, Crabgrass, Large [5, 14]: 60
- Plant response rating, Crabgrass, Large [5, 15]: 100
- Plant response rating, Wheat [6, 12]: 0
- Plant response rating, Wheat [6, 13]: 30
- Plant response rating, Wheat [6, 14]: 0
- Plant response rating, Wheat [6, 15]: 20
- Plant response rating, Barnyardgrass [7, 12]: 80
- Plant response rating, Barnyardgrass [7, 13]: 90
- Plant response rating, Barnyardgrass [7, 14]: 50
- Plant response rating, Barnyardgrass [7, 15]: 90
- Plant response rating, Canarygrass [8, 16]: 0
- Canarygrass plant response rating (0 to 100 scale) [8, 17]: 0
- Plant response rating, Canarygrass [8, 18]: 5
- Plant response rating, Canarygrass [8, 19]: 5
- Windgrass plant response rating (0 to 100 scale) [9]: 45
- Plant response rating, Windgrass [9]: 65
- Plant response rating, Barley [10, 16]: 0
- Barley plant response rating (0 to 100 scale) [10, 17]: 0
- Plant response rating, Barley [10, 18]: 0
- Plant response rating, Barley [10, 19]: 0
- Plant response rating, Chickweed [11, 16]: 85
- Chickweed plant response rating (0 to 100 scale) [11, 17]: 95
- Plant response rating, Chickweed [11, 18]: 98
- Plant response rating, Chickweed [11, 19]: 100

SMILES: COCCCn1c(-c2cccc(C)c2)ncc(C(=O)C2=C(O)CCCC2=O)c1=O [Compound 118, 5-[(2-hydroxy-6-oxo-1-cyclohexane-1-yl)carbonyl]-3-(3-methoxypropyl)-2-(3-methylphenyl)-4(3H)-pyrimidinone]
- Plant response rating, Morningglory [1, 12]: 100
- Plant response rating, Morningglory [1, 13]: 100
- Plant response rating, Morningglory [1, 14]: 10
- Plant response rating, Morningglory [1, 15]: 70
- Plant response rating, Pigweed [2, 12]: 100
- Plant response rating, Pigweed [2, 13]: 100
- Plant response rating, Pigweed [2, 14]: 90
- Plant response rating, Pigweed [2, 15]: 100
- Plant response rating, Foxtail, Giant [3, 12]: 80
- Plant response rating, Foxtail, Giant [3, 13]: 90
- Plant response rating, Foxtail, Giant [3, 14]: 10
- Plant response rating, Foxtail, Giant [3, 15]: 50
- Plant response rating, Corn (corn (Zea mays); [12]): 0
- Plant response rating, Corn (corn (Zea mays); [13]): 30
- Plant response rating, Corn (corn (Zea mays); [14]): 0
- Plant response rating, Corn (corn (Zea mays); [15]): 0
- Plant response rating, Velvetleaf [4, 12]: 100
- Plant response rating, Velvetleaf [4, 13]: 100
- Plant response rating, Velvetleaf [4, 14]: 70
- Plant response rating, Velvetleaf [4, 15]: 80
- Plant response rating, Crabgrass, Large [5, 12]: 90
- Plant response rating, Crabgrass, Large [5, 13]: 90
- Plant response rating, Crabgrass, Large [5, 14]: 60
- Plant response rating, Crabgrass, Large [5, 15]: 90
- Plant response rating, Wheat [6, 12]: 0
- Plant response rating, Wheat [6, 13]: 10
- Plant response rating, Wheat [6, 14]: 0
- Plant response rating, Wheat [6, 15]: 0
- Plant response rating, Barnyardgrass [7, 12]: 90
- Plant response rating, Barnyardgrass [7, 13]: 90
- Plant response rating, Barnyardgrass [7, 14]: 30
- Plant response rating, Barnyardgrass [7, 15]: 90
- Plant response rating, Canarygrass [8, 16]: 0
- Canarygrass plant response rating (0 to 100 scale) [8, 17]: 0
- Plant response rating, Canarygrass [8, 18]: 10
- Plant response rating, Canarygrass [8, 19]: 15
- Windgrass plant response rating (0 to 100 scale) [9]: 60
- Plant response rating, Windgrass [9]: 70
- Plant response rating, Barley [10, 16]: 0
- Barley plant response rating (0 to 100 scale) [10, 17]: 0
- Plant response rating, Barley [10, 18]: 0
- Plant response rating, Barley [10, 19]: 0
- Plant response rating, Chickweed [11, 16]: 90
- Chickweed plant response rating (0 to 100 scale) [11, 17]: 95
- Plant response rating, Chickweed [11, 18]: 95
- Plant response rating, Chickweed [11, 19]: 100
